Data: patent publication US20230271941A1, “COMPOUNDS AND COMPOSITIONS FOR TREATING CONDITIONS ASSOCIATED WITH STING ACTIVITY” (IFM Due, Inc., priority 2020, published 2023)

Biological target: T1, hSTING (Homo sapiens, UniProt Q86WV6, G230A/H232R/R293Q/R71H)
T1 construct: host or cells: THP1-Dual KO-IFNAR2 cells
Assay: STING reporter assay: THP1-Dual KO-IFNAR2 cells stimulated with 2′3′cGAMP, luciferase reporter activity
Type: cell-based
Settings: 15 μM 2′3′cGAMP transfected with Lipofectamine 2000, 24 h, luciferase reporter (QUANTI-Luc)
Experimental: STING pathway activation by the compounds described herein was measured using THP1-Dual™ cells (KO-IFNAR2).
THP1-Dual™ KO-IFNAR2 Cells (obtained from invivogen) were maintained in RPMI, 10% FCS, 5 ml P/S, 2 mM L-glut, 10 mM Hepes, and 1 mM sodium pyruvate. Compounds were spotted in empty 384 well tissue culture plates (Greiner 781182) by Echo for a final concentration of 0.0017-100 μM. Cells were plated into the TC plates at 40 μL per well, 2×10E6 cells/mL. For activation with STING ligand, 2′3′cGAMP (MW 718.38, obtained from Invivogen), was prepared in Optimem media.
The following solutions were prepared for each 1×384 plate: • Solution A: 2 mL Optimem with one of the following stimuli: • 60 μL of 10 mM 2′3′cGAMP→150 μM stock • Solution B: 2 mL Optimem with 60 μL Lipofectamine 2000→Incubate 5 min at RT
2 mL of solution A and 2 ml Solution B was mixed and incubated for 20 min at room temperature (RT). 20 μL of transfection solution (A+B) was added on top of the plated cells, with a final 2′3′cGAMP concentration of 15 μM. The plates were then centrifuged immediately at 340 g for 1 minute, after which they were incubated at 37° C., 5% CO2, >98% humidity for 24 h. Luciferase reporter activity was then measured. EC50 values were calculated by using standard methods known in the art.
Luciferase reporter assay: 10 μL of supernatant from the assay was transferred to white 384-plate with flat bottom and squared wells. One pouch of QUANTI-Luc™ Plus was dissolved in 25 mL of water. 100 μL of QLC Stabilizer per 25 mL of QUANTI-Luc™Plus solution was added. 50 μL of QUANTI-Luc™ Plus/QLC solution per well was then added. Luminescence was measured on a Platereader (e.g., Spectramax I3X (Molecular Devices GF3637001)).
Luciferase reporter activity was then measured. EC50 values were calculated by using standard methods known in the art.

T1 sequence (Q86WV6 whole entry R71H/G230A/H232R/R293Q): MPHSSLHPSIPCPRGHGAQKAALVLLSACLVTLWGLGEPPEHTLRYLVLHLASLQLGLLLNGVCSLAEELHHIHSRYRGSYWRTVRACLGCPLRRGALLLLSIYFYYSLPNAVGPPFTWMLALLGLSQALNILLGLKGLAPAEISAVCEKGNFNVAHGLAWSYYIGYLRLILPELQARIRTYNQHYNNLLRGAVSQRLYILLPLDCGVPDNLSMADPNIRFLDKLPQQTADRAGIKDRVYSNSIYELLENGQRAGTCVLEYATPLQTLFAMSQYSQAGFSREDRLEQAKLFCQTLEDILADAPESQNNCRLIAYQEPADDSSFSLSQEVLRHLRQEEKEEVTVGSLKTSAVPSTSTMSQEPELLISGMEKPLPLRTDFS

| Structure (SMILES) | EC50 [µM] |
| --- | --- |
| COc1ccc2[nH]cc(NC(=O)c3cnn(Cc4ccc(C(F)(F)F)cc4)c3)c2n1 [Compound 118, N-(5-methoxy-1H-pyrrolo[3,2-b]pyridin-3-yl)-1-(4-(trifluoromethyl)benzyl)-1H-pyrazole-4-carboxamide] | 1 to 5 |
| O=C(Nc1c[nH]c2cc(F)ccc12)c1ccn(Cc2ccc(C(F)(F)F)cc2)n1 [Compound 103, N-(6-fluoro-1H-indol-3-yl)-1-(4-(trifluoromethyl)benzyl)-1H-pyrazole-3-carboxamide] | 0.2 to 1 |
| O=C(Nc1c[nH]c2cc(F)c(F)cc12)c1cc(Cc2ccc(C(F)(F)F)cc2)[nH]n1 [Compound 145, N-(5,6-difluoro-1H-indol-3-yl)-5-(4-(trifluoromethyl)benzyl)-1H-pyrazole-3-carboxamide] | 0.2 to 1 |
| O=C(Nc1c[nH]c2cc(F)c(F)cc12)c1cc(Cc2ccc(C(F)(F)F)cc2)no1 [Compound 151, N-(5,6-difluoro-1H-indol-3-yl)-3-(4-(trifluoromethyl)benzyl)isoxazole-5-carboxamide] | 0.2 to 1 |
| O=C(Nc1c[nH]c2cc(F)c(F)cc12)c1ncn(-c2ccccc2)n1 [Compound 110, N-(5,6-difluoro-1H-indol-3-yl)-1-phenyl-1H-1,2,4-triazole-3-carboxamide] | 0.04 to 0.2 |
| O=C(Nc1c[nH]c2ccc(-c3ccc(CO)c(F)c3)cc12)c1cn(Cc2ccc(C(F)(F)F)cc2)cn1 [Compound 137, N-(5-(3-fluoro-4-(hydroxymethyl)phenyl)-1H-indol-3-yl)-1-(4-(trifluoromethyl)benzyl)-1H-imidazole-4-carboxamide] | 1 to 5 |
| O=C(Nc1c[nH]c2cc(F)c(F)cc12)c1cn(-c2ccc(C(F)(F)F)cc2)nn1 [Compound 106, N-(5,6-difluoro-1H-indol-3-yl)-1-(4-(trifluoromethyl)phenyl)-1H-1,2,3-triazole-4-carboxamide] | 0.2 to 1 |
| N#Cc1cccc(-c2cc(C(=O)Nc3c[nH]c4cc(F)c(F)cc34)no2)c1 [Compound 123, 5-(3-cyanophenyl)-N-(5,6-difluoro-1H-indol-3-yl)isoxazole-3-carboxamide] | 0.2 to 1 |
| CC(C)(C)OC(=O)N1CCC(n2cc(C(=O)Nc3c[nH]c4cc(F)c(F)cc34)nn2)CC1 [Compound 169, tert-butyl 4-(4-((5,6-difluoro-1H-indol-3-yl)carbamoyl)-1H-1,2,3-triazol-1-yl)piperidine-1-carboxylate] | 1 to 5 |
| O=C(Nc1c[nH]c2cc(F)c(F)cc12)c1cnn(CCOc2cncc(C(F)(F)F)c2)c1 [Compound 161, N-(5,6-difluoro-1H-indol-3-yl)-1-(2-((5-(trifluoromethyl)pyridin-3-yl)oxy)ethyl)-1H-pyrazole-4-carboxamide] | 0.2 to 1 |
| O=C(Nc1c[nH]c2cc(F)c(F)cc12)c1cnn(C2CCCCC2)c1 [Compound 116, 1-cyclohexyl-N-(5,6-difluoro-1H-indol-3-yl)-1H-pyrazole-4-carboxamide] | 1 to 5 |
| COc1ccc2[nH]cc(NC(=O)c3ccn(Cc4ccc(C(F)(F)F)cc4)n3)c2n1 [Compound 134, N-(5-methoxy-1H-pyrrolo[3,2-b]pyridin-3-yl)-1-(4-(trifluoromethyl)benzyl)-1H-pyrazole-3-carboxamide] | 1 to 5 |
| COc1cc2[nH]cc(NC(=O)c3cnn(Cc4ccc(C(F)(F)F)cc4)c3)c2cn1 [Compound 126, N-(6-methoxy-1H-pyrrolo[3,2-c]pyridin-3-yl)-1-(4-(trifluoromethyl)benzyl)-1H-pyrazole-4-carboxamide] | 1 to 5 |
| O=C(Nc1c[nH]c2cc(F)c(F)cc12)c1cc(-c2ccc(F)cc2F)on1 [Compound 170, N-(5,6-difluoro-1H-indol-3-yl)-5-(2,4-difluorophenyl)isoxazole-3-carboxamide] | 0.2 to 1 |
| O=C(Nc1c[nH]c2cc(F)c(F)cc12)c1csc(Cc2ccccc2)n1 [Compound 112, 2-benzyl-N-(5,6-difluoro-1H-indol-3-yl)-1,3-thiazole-4-carboxamide] | 1 to 5 |
| O=C(Nc1c[nH]c2cc(F)ccc12)c1cnn(Cc2ccc(C(F)(F)F)cc2)c1 [Compound 143, N-(6-fluoro-1H-indol-3-yl)-1-(4-(trifluoromethyl)benzyl)-1H-pyrazole-4-carboxamide] | 0.2 to 1 |
| O=C(Nc1c[nH]c2ccccc12)c1cn(Cc2ccc(C(F)(F)F)c(Cl)c2)cn1 [Compound 136, 1-(3-chloro-4-(trifluoromethyl)benzyl)-N-(1H-indol-3-yl)-1H-imidazole-4-carboxamide] | 0.2 to 1 |
| O=C(Nc1c[nH]c2cc(Cl)ccc12)c1cnn(Cc2ccc(C(F)(F)F)cc2)c1 [Compound 102, N-(6-chloro-1H-indol-3-yl)-1-[[4-(trifluoromethyl)phenyl]methyl]pyrazole-4-carboxamide] | 0.2 to 1 |
| Cn1nc(C(=O)Nc2c[nH]c3cc(F)c(F)cc23)cc1-c1ccccc1 [Compound 172, N-(5,6-difluoro-1H-indol-3-yl)-1-methyl-5-phenyl-1H-pyrazole-3-carboxamide] | 0.2 to 1 |
| O=C(Nc1c[nH]c2cc(F)c(F)cc12)c1cnn(CC2CCC(F)(F)CC2)c1 [Compound 122, N-(5,6-difluoro-1H-indol-3-yl)-1-((4,4-difluorocyclohexyl)methyl)-1H-pyrazole-4-carboxamide] | 0.2 to 1 |
| O=C(Nc1c[nH]c2cc(F)ccc12)c1cn(Cc2ccc(C(F)(F)F)cc2)cn1 [Compound 104, N-(6-fluoro-1H-indol-3-yl)-1-(4-(trifluoromethyl)benzyl)-1H-imidazole-4-carboxamide] | 0.2 to 1 |
| O=C(Nc1c[nH]c2c(F)cncc12)c1cnn(Cc2ccc(C(F)(F)F)cc2)c1 [Compound 128, N-(7-fluoro-1H-pyrrolo[3,2-c]pyridin-3-yl)-1-(4-(trifluoromethyl)benzyl)-1H-pyrazole-4-carboxamide] | 0.2 to 1 |

Other lines, results leading:

| EC50 [µM] | Structure (SMILES) |
| --- | --- |
| 0.2 to 1 | Cn1nc(C(=O)Nc2c[nH]c3cc(F)c(F)cc23)cc1Cc1ccc(C(F)(F)F)cc1 [Compound 113, N-(5,6-difluoro-1H-indol-3-yl)-1-methyl-5-(4-(trifluoromethyl)benzyl)-1H-pyrazole-3-carboxamide] |
| 0.2 to 1 | Cc1cc(-c2cc(C(=O)Nc3c[nH]c4cc(F)c(F)cc34)n[nH]2)ccc1Cl [Compound 164, 5-(4-chloro-3-methylphenyl)-N-(5,6-difluoro-1H-indol-3-yl)-1H-pyrazole-3-carboxamide] |
| 5 to 100 | O=C(Nc1c[nH]c2cc(F)c(F)cc12)c1cc(-c2cccnc2)[nH]n1 [Compound 119, N-(5,6-difluoro-1H-indol-3-yl)-5-(pyridin-3-yl)-1H-pyrazole-3-carboxamide] |
| 1 to 5 | O=C(Nc1c[nH]c2cc(F)c(F)cc12)c1cn(-c2ccnc(COCC(F)(F)F)c2)nn1 [Compound 156, N-(5,6-difluoro-1H-indol-3-yl)-1-(2-((2,2,2-trifluoroethoxy)methyl)pyridin-4-yl)-1H-1,2,3-triazole-4-carboxamide] |
| 0.2 to 1 | O=C(Nc1c[nH]c2cc(F)c(F)cc12)c1cc(-c2ccc(Cl)cc2)no1 [Compound 171, 3-(4-chlorophenyl)-N-(5,6-difluoro-1H-indol-3-yl)isoxazole-5-carboxamide] |
| 0.2 to 1 | O=C(Nc1c[nH]c2ccc(Cl)cc12)c1cn(-c2cnc(NCC(F)(F)F)c(F)c2)nn1 [Compound 158, N-(5-chloro-1H-indol-3-yl)-1-(5-fluoro-6-((2,2,2-trifluoroethyl)amino)pyridin-3-yl)-1H-1,2,3-triazole-4-carboxamide] |
| 0.2 to 1 | O=C(Nc1c[nH]c2cc(F)c(F)cc12)c1cc(-c2cccc(Cl)c2)[nH]n1 [Compound 174, 5-(3-chlorophenyl)-N-(5,6-difluoro-1H-indol-3-yl)-1H-pyrazole-3-carboxamide] |
| 0.2 to 1 | O=C(Nc1c[nH]c2cc(F)c(F)cc12)c1cc(-c2cc(F)cc(F)c2)[nH]n1 [Compound 173, N-(5,6-difluoro-1H-indol-3-yl)-5-(3,5-difluorophenyl)-1H-pyrazole-3-carboxamide] |
| 0.2 to 1 | O=C(Nc1c[nH]c2cc(F)c(F)cc12)c1cc(CC2CCN(CC(F)(F)F)CC2)on1 [Compound 152, N-(5,6-difluoro-1H-indol-3-yl)-5-((1-(2,2,2-trifluoroethyl)piperidin-4-yl)methyl)isoxazole-3-carboxamide] |
| 0.04 to 0.2 | Cc1cc(Cn2cc(C(=O)Nc3c[nH]c4cc(F)c(F)cc34)cn2)cnc1OCC(F)(F)F [Compound 163, N-(5,6-difluoro-1H-indol-3-yl)-1-((5-methyl-6-(2,2,2-trifluoroethoxy)pyridin-3-yl)methyl)-1H-pyrazole-4-carboxamide] |
| 0.2 to 1 | O=C(Nc1c[nH]c2cc(F)c(F)cc12)c1cc(-c2ccc(Cl)cc2)n[nH]1 [Compound 108, 3-(4-chlorophenyl)-N-(5,6-difluoro-1H-indol-3-yl)-1H-pyrazole-5-carboxamide] |
